Test results reported in patent US9492424B2, “Muscle atrophy inhibitor” (MORINAGA MILK INDUSTRY CO., LTD., priority 2011, dated 2016).

Columns and labels:
[1] = tested on: atrogin-1 gene; test: expression amount of atrogin-1 gene in tibialis anterior muscle by real time PCR; assay type: in vivo, rat; settings: Example 3
Description: (§1) The tibialis anterior muscles collected in Example 1 mentioned above were used to evaluate expression amounts of genes that participate in muscle atrophy.
(§2) The tibialis anterior muscle was frozen in liquid nitrogen immediately after the collection, and homogenized in Trizol Reagent (Invitrogen), and the total RNA was extracted by using RNeasy Mini Kit (QIAGEN). cDNA was obtained by the total RNA by using High Capacity cDNA Reverse Kit (ABI). The cDNA, primers for amplifying each of the atrogin-1, MuRF1, and myostatin genes (ABI), and Taqman Fast Universal PCR Master Mix (ABI) were mixed, and expression amount of each gene in the test sample was relatively quantified by the real time PCR method, with taking the gene expression amount in the DEX group as 1. In statistical analysis, it was determined whether there were statistically significant differences between the values obtained for the DEX group and the values obtained for the other groups according to the Dunnett test.
(§3) In Examples 1 and 2, 1 mass % of the extract of Citrus depressa was added to the feed, and fed. […]

[2] = tested on: MuRF1 gene; test: expression amount of MuRF1 gene in tibialis anterior muscle by real time PCR; assay type: in vivo, rat; settings: Example 3
Description: as §1, §2, §3

Row | Structure (SMILES) | expression amount of the atrogin-1 gene relative to DEX group taken as 1.0 ([1]; eight-month old SD rats, 0.0007 mass % in feed for two weeks, dexamethasone) | ingestion amount with which the effect can be expected ([1]; from feed intake and body weight of the NOB group, 19 days ingestion) | expression amount of the MuRF1 gene relative to DEX group taken as 1.0 ([2]; eight-month old SD rats, 0.0004 mass % in feed for two weeks, dexamethasone) | ingestion amount with which the effect can be expected ([2]; from feed intake and body weight of the TAN group, 19 days ingestion)
1 | COc1ccc(-c2cc(=O)c3c(OC)c(OC)c(OC)c(OC)c3o2)cc1OC [NOB, nobiletin] | 0.85±0.29 | about 0.2 mg/kg/day | – | –
2 | COc1ccc(-c2cc(=O)c3c(OC)c(OC)c(OC)c(OC)c3o2)cc1 [TAN, tangeretin] | – | – | 0.77±0.35 | about 0.1 mg/kg/day
